Test results as given in patent US8247211B2, “Glycopeptide antibiotics” (American Cyanamid Company, priority 2001, dated 2012).
Numbered stars: 1 amine (or outer) side, 2 acyl side, 3 side chain; on linkers, the order of the positions; unused ones are H or OH. Square brackets hold non-standard residues; d marks the D form. Peptide text beside a SMILES is read from it. ξ: configuration not given here. X1 = N=C1NCC(C(O)C(N[*:1])C(=O)[*:2])N1C1OC(CO)C(O)C(O)C1O; ξEnduracididine(βξ-OH,4'ξ) = N=C1NCC(C(O)C(N)C(=O)O)N1; ξCha(3ξ-Me) = CC(C1CCCCC1)C(N)C(=O)O; Cha = N[CH](CC1CCCCC1)C(=O)O

Assays:
Experiment in all cases: In vitro antibacterial evaluation: minimum inhibitory concentration (MIC), broth dilution method
Format in all cases: cell-based
[1] = tested on: Enterococcus sp.; settings: broth dilution, 18 hours at 35° C.
Method in brief: (§1)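 Broth dilution per NCCLS M7-A2 in Muller-Hinton II […], inoculum 5×10^5 CFU/mL, antibiotic tested over 64-0.06 μg/mL. MIC is taken as the lowest concentration that inhibits growth. Panel includes recent clinical isolates resistant to methicillin, penicillin and/or vancomycin.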

[2] = tested on: Staphylococcus sp.; settings: broth dilution, 18 hours at 35° C.; for MIC Staphylococcus aureus-SMITH (GC 4543): strain SMITH GC 4543
Method in brief: as §1

[3] = tested on: Streptococcus sp.; settings: broth dilution, 18 hours at 35° C.
Method in brief: as §1

[4] = tested on: Escherichia coli; settings: broth dilution, 18 hours at 35° C.
[5] = Enterococcus faecalis (GC 2242)
[6] = Enterococcus faecalis (GC 2691)
[7] = Enterococcus faecalis (GC 3059)
[8] = Streptococcus agalactiae (GC 4564)
[9] = Streptococcus pneumoniae (ATCC 6301)
[10] = Streptococcus pneumoniae (GC 1894)
[11] = Streptococcus pneumoniae (GC 4565)
[12] = Streptococcus pyogenes (GC 4563)

CC(C1CCCCC1)C1NC(=O)CNC(=O)C(CO)NC(=O)C(C(O)C2CNC(=N)N2C2OC(CO)C(O)C(O)C2O)NC(=O)C(C(O)C2CNC(=N)N2)NC(=O)C(CC2CCCCC2)NC1=O (stereo not drawn) [Example 53, Cyclo[3-cyclohexylalanyl-3-(2-iminoimidazolidin-4-yl)seryl-3-(3-hexopyranosyl-2-iminoimidazolidin-4-yl)serylserylglycyl-3-cyclohexyl-2-aminobutanoyl]] (cyclo(G[ξCha(3ξ-Me)][Cha][ξEnduracididine(βξ-OH,4'ξ)][X1]S); configuration not given here)
1 µg/mL: MIC Coagulase Negative Staphylococcus (GC 4549) [2] | MIC Staphylococcus haemolyticus (GC 4546) [2] | MIC Streptococcus agalactiae (GC 4564) [3, 8] | MIC Streptococcus pneumoniae (ATCC 6301) [3, 9] | MIC Streptococcus pneumoniae (GC 1894) [3, 10] | MIC Streptococcus pyogenes (GC 4563) [3, 12] | MIC Streptococcus agalactiae (GC 4564) [3] | MIC Streptococcus pneumoniae (ATCC 6301) [3] | MIC Streptococcus pneumoniae (GC 1894) [3] | MIC Streptococcus pyogenes (GC 4563) [3]
2 µg/mL: MIC Enterococcus faecium (GC 2243) [1] | MIC Enterococcus faecium (GC 4557) [1] | MIC Coagulase Negative Staphylococcus (GC 4547) [2] | MIC Coagulase Negative Staphylococcus (GC 4548) [2] | MIC Coagulase Negative Staphylococcus (GC 4551) [2] | MIC Staphylococcus aureus SMITH (GC 4543) [2] | MIC Staphylococcus aureus-SMITH (GC 4543) [2]
4 µg/mL: MIC Enterococcus avium (GC 4558) [1] | MIC Enterococcus faecalis (GC 4553) [1] | MIC Enterococcus faecalis (GC 6189) [1] | MIC Streptococcus pneumoniae (GC 4565) [3, 11] | MIC Streptococcus pneumoniae (GC 4565) [3] | MIC Escherichia coli (GC 4560) [4]
16 µg/mL: MIC Enterococcus faecalis (GC 4554) [1]
8 µg/mL: MIC Enterococcus faecalis (GC 2242) [1, 5] | MIC Enterococcus faecalis (GC 2691) [1, 6] | MIC Enterococcus faecalis (GC 3059) [1, 7] | MIC Enterococcus faecalis (ATCC 29212) [1] | MIC Enterococcus faecalis (GC 2242) [1] | MIC Enterococcus faecalis (GC 2691) [1] | MIC Enterococcus faecalis (GC 3059) [1] | MIC Enterococcus faecalis (GC 4552) [1] | MIC Enterococcus faecium (GC 4556) [1]

CC(c1ccccc1)C1NC(=O)CNC(=O)C(CO)NC(=O)C(C(O)C2CNC(=N)N2C2OC(CO)C(O)C(O)C2O)NC(=O)C(C(O)C2CNC(=N)N2)NC(=O)C(Cc2ccc3oc(SCc4ccc5ccccc5c4)nc3c2)NC1=O (stereo not drawn) [Example 46, Cyclo[3-[2-[(naphthylmethyl)thio]-1,3-benzoxazol-5-yl]alanyl-3-(2-iminoimidazolidin-4-yl)-seryl-3-(3-hexopyranosyl-2-iminoimidazolidin-4-yl)serylserylglycyl-β-methylphenylalanyl]]
32 µg/mL: MIC Enterococcus faecalis (GC 3059) [1, 7] | MIC Enterococcus faecalis (GC 3059) [1]
64 µg/mL: MIC Escherichia coli (ATCC 25922) [4] | MIC Escherichia coli (GC 4559) [4]
8 µg/mL: MIC Enterococcus faecalis (ATCC 29212) ([1]; Enterococcus faecalis (ATCC 29212)) | MIC Enterococcus faecalis (GC 2242) [1, 5] | MIC Enterococcus faecalis (GC 4552) ([1]; Enterococcus faecalis (GC 4552)) | MIC Enterococcus faecium (GC 4557) ([1]; Enterococcus faecium (GC 4557)) | MIC Enterococcus faecalis (ATCC 29212) [1] | MIC Enterococcus faecalis (GC 2242) [1] | MIC Enterococcus faecalis (GC 4552) [1] | MIC Enterococcus faecium (GC 4557) [1] | MIC Coagulase Negative Staphylococcus (GC 4548) [2] | MIC Staphylococcus haemolyticus (GC 4546) [2] | MIC Streptococcus agalactiae (GC 4564) [3, 8] | MIC Streptococcus pneumoniae (ATCC 6301) [3, 9] | MIC Streptococcus pneumoniae (GC 1894) [3, 10] | MIC Streptococcus pneumoniae (GC 4565) [3, 11] | MIC Streptococcus agalactiae (GC 4564) [3] | MIC Streptococcus pneumoniae (ATCC 6301) [3] | MIC Streptococcus pneumoniae (GC 1894) [3] | MIC Streptococcus pneumoniae (GC 4565) [3]
16 µg/mL: MIC Enterococcus faecalis (GC 2691) [1, 6] | MIC Enterococcus faecalis (GC 4554) ([1]; Enterococcus faecalis (GC 4554)) | MIC Enterococcus faecalis (GC 6189) ([1]; Enterococcus faecalis (GC 6189)) | MIC Enterococcus faecium (GC 4556) ([1]; Enterococcus faecium (GC 4556)) | MIC Enterococcus faecalis (GC 2691) [1] | MIC Enterococcus faecalis (GC 4554) [1] | MIC Enterococcus faecalis (GC 6189) [1] | MIC Enterococcus faecium (GC 4556) [1] | MIC Escherichia coli (GC 4560) [4]
1 µg/mL: MIC Streptococcus pyogenes (GC 4563) [3, 12] | MIC Streptococcus pyogenes (GC 4563) [3]
2 µg/mL: MIC Coagulase Negative Staphylococcus (GC 4549) [2]
4 µg/mL: MIC Enterococcus avium (GC 4558) ([1]; Enterococcus avium (GC 4558)) | MIC Enterococcus faecalis (GC 4553) ([1]; Enterococcus faecalis (GC 4553)) | MIC Enterococcus faecium (GC 2243) ([1]; Enterococcus faecium (GC 2243)) | MIC Enterococcus avium (GC 4558) [1] | MIC Enterococcus faecalis (GC 4553) [1] | MIC Enterococcus faecium (GC 2243) [1] | MIC Coagulase Negative Staphylococcus (GC 4547) [2] | MIC Coagulase Negative Staphylococcus (GC 4551) [2] | MIC Staphylococcus aureus SMITH (GC 4543) [2] | MIC Staphylococcus aureus-SMITH (GC 4543) [2]
